In paper PMC12362582, “Linker Methylation as a Strategy to Enhance PROTAC Oral Bioavailability: Insights from Molecular Properties and Conformational Analysis” (Journal of Medicinal Chemistry, 2025):
Where two headings read alike, the source gives them in different places.

Experiments:
[1] = log kW IAM (IAM.PC.DD2 column) and derived Δlog kW IAM polarity; assay type: physicochemical; conditions: for log kW^IAM: IAM.PC.DD2 column, extrapolated, pH 7; for Δlog kW^IAM: log kW IAM – clog kW IAM (clog = 0.92*BRlogD – 1.03)
Description: (§1) Lipophilicity was assessed using three chromatographic descriptors, each simulating distinct aspects of membrane environments. BRlogD is a surrogate of the octanol/water distribution coefficient (log D oct) reflecting a general partitioning across biological membranes. Log k W ^IAM implements an Immobilized Artificial Membrane (IAM) column which provides a lipophilicity index in an environment resembling the membrane phospholipids. Finally, log k′80 PLRP-S reflects retention in a hydrophobic polymeric column environment, mimicking the nonpolar core of lipid bilayers, and acts as a surrogate for the toluene/water partition coefficient (log D tol). Lipophilicity remained within a moderate range across all systems.
Polarity was quantified by Δlog k W ^IAM, a descriptor obtained from the experimental log k W ^IAM and BRlogD. In addition, we also measured EPSA (Table S2), another polarity descriptor based on a supercritical fluid chromatographic (SFC) system widely used in drug discovery.
(§2) All chromatographic measurements were performed using the Thermo Scientific Inc. HPLC DIONEX Ultimate 3000 connected to an RS diode array and the Chromeleon 7.2.10 software (www.thermofisher.com). 1.5 mL HPLC vials, 9 mm PP screw caps, and high-performance ergonomic single-channel variable volume pipettors from VWR Signature were used. A Eutech pH Meter 2700 was used to regulate the pH of each buffer and sample (www.fishersci.com). For all the chromatographic descriptors, the mobile phase consisted of an acetonitrile solution (ACN) and 20 mM AAB, pH 7. Moreover, 10 μL was set as the volume of injection of compound concentrations ranging from 50 to 100 μg/mL in ACN/buffer mixtures. One mL/min was chosen as the isocratic flow rate and 30 °C as the oven temperature. However, each chromatographic system (RP) had its own conditions:
This descriptor required the use of an IAM.PC.DD2 (300 Å, 10 μm, 10 cm × 4.6 mm) column from REGIS. The organic solvent of the eluent, ACN, was modified at various percentages (from 10 to 50%, v/v) and the retention times were measured. Next, the capacity factor (log k′) values were calculated as described elsewhere and the equation represented by the five was obtained. Lastly the extrapolated value at 100% ACN (0% aqueous buffer) or log k w ^IAM was obtained. Caffeine, carbamazepine, ketoprofen, theobromine, and toluene were checked daily as gold standards. ,
This polarity descriptor was calculated using the equation Δlog k w ^IAM = log k w ^IAM – clog k w ^IAM. Clog k w ^IAM, defined as the log k w ^IAM for neutral compounds with PSA = 0, has been correlated to BRlogD by our group with the equation: clog k w ^IAM= 0.92*BRlogD – 1.03.

[2] = Chamelogk chromatographic chameleonicity (PLRP-S column); assay type: physicochemical; conditions: Exp. log k'100 – Ext. log k'100, PLRP-S column
Source text: Chameleonicity was monitored by Chamelogk, a recent chromatographic descriptor able to capture environment-dependent conformational changes by monitoring different mobile phase compositions on the PLRP-S column. All PROTACs behave as strong chameleons (Chamelogk > 0.6). Additionally, we calculated the EPSA-to-TPSA ratio (ETR), a recently proposed index for polarity masking. The ETR values remained consistently around 0.7 across the series, supporting the notion that conformational effects contribute uniformly to the polarity profiles of the analyzed PROTACs.
Using the PLRP-S column, we assessed the RT of each PROTAC in the data set at four different mobile phase conditions (50, 60, 70 and 100% MeCN) and calculated the capacity factor at each mobile phase composition. First, we constructed a linear trend using the first three mobile phase conditions (50, 60, and 70% MeCN) that respected a linear behavior and calculated the extrapolated value at 100% MeCN (Ext. log k′100). Chamelogk was then calculated with the following equation: Chamelogk = Exp. log k′100 – Ext. log k′100.

[3] = log k'80 PLRP-S chromatographic lipophilicity; assay type: physicochemical; conditions: 80% ACN / 20% 20 mM ammonium acetate, pH 7.0
Description: Molecular properties have been quantified with physicochemical descriptors of ionization, lipophilicity, polarity and chameleonicity (see Methods). First, ionization of the 11 PROTACs (basic center, Figure a) was analyzed by potentiometry. However, standard pK a measurements in water were limited by solubility and precipitation issues (data not shown). Therefore, to assess the dominant species at physiological pH we adopted a chromatographic method previously published by some of us. Briefly, we monitored the trend of the capacity factor named log k′80 PLRP-S at different pHs (acid-neutral-basic). […] The most neutral feature of the considered PROTACs in in line with the main role played by the neutral species in crossing membranes.
as §1, §2
Log k′80 PLRP-S and Chamelogk, on the other hand, were measured using the PLRP-S polymeric reversed-phase column (100 Å, 5 μm, 50 × 4.6 mm) from Agilent (www.agilent.com). The assessment of log k′80 PLRP-S involved the measurement and calculation of the capacity factor of each sample at an eluent composition of 80% ACN and 20% 20 mM ammonium acetate at pH 7.0. In addition, acetone, caffeine, phenol and a mixture of uracile, acetophenone and toluene were used as gold standards. Moreover, log k′80 PLRP-S was also assessed at different pHs (2, 7 and 12) using 0.1% formate buffer, 0.1% ammonium acetate, and 10 mM triethylamine.

[4] = Bidirectional Caco-2 permeability and efflux ratio assay; assay type: in vitro ADME; conditions: human
[5] = with Zosuquidar (P-gp inhibitor), concentration not given, Caco-2, in the presence of a Pgp inhibitor (Zosuquidar), read-out: ER (+Pgp inhibitor)
[6] = Caco-2, in the absence of an inhibitor, read-out: ER (Caco-2 efflux ratio)

Row | Compound | log kW^IAM [1] | Δlog kW^IAM [1] | Chamelogk [2] | log k'80 PLRP-S [3] | efflux ratio at 1 μM [4, 5] | efflux ratio at 1 μM [4, 6] | Δlog kW^IAM ([1]; listed as A5–1) | Δlog kW^IAM ([1]; listed as A5–4)
1 | Cc1ncsc1-c1ccc([C@H](CCCN2CCC(c3ccc4c(c3)n(C3CCCC3)c3nc(=O)c5c(Br)cccc5n43)CC2)NC(=O)[C@@H]2C[C@@H](O)CN2C(=O)[C@@H](NC(=O)C2(F)CC2)C(C)(C)C)cc1 [A3-1] | 2.01 | 0.93 | >2 | 0.07 | 1.8 | – | – | –
2 | Cc1ncsc1-c1ccc([C@H](C[C@H](C)CN2CCC(c3ccc4c(c3)n(C3CCCC3)c3nc(=O)c5c(Br)cccc5n43)CC2)NC(=O)[C@@H]2C[C@@H](O)CN2C(=O)[C@@H](NC(=O)C2(F)CC2)C(C)(C)C)cc1 [A3-2] | 2.21 | 0.21 | >2 | 0.18 | 0.9 | 9 | – | –
3 | Cc1ncsc1-c1ccc([C@H](C[C@@H](C)CN2CCC(c3ccc4c(c3)n(C3CCCC3)c3nc(=O)c5c(Br)cccc5n43)CC2)NC(=O)[C@@H]2C[C@@H](O)CN2C(=O)[C@@H](NC(=O)C2(F)CC2)C(C)(C)C)cc1 [A3-3] | 2.29 | 0.26 | >2 | 0.32 | 0.4 | 5.1 | – | –
4 | Cc1ncsc1-c1ccc([C@H](CCCCCN2CCC(c3ccc4c(c3)n(C3CCCC3)c3nc(=O)c5c(Br)cccc5n43)CC2)NC(=O)[C@@H]2C[C@@H](O)CN2C(=O)[C@@H](NC(=O)C2(F)CC2)C(C)(C)C)cc1 [A5-1] | 3.00 | 1.77 | >2 | 0.03 | 1.6 | 24.2 | > 1.5 | –
5 | Cc1ncsc1-c1ccc([C@H](CC[C@H](C)CCN2CCC(c3ccc4c(c3)n(C3CCCC3)c3nc(=O)c5c(Br)cccc5n43)CC2)NC(=O)[C@@H]2C[C@@H](O)CN2C(=O)[C@@H](NC(=O)C2(F)CC2)C(C)(C)C)cc1 [A5-2] | 2.37 | 0.85 | >2 | 0.22 | 1.6 | 7.5 | – | –
6 | Cc1ncsc1-c1ccc([C@H](CC[C@@H](C)CCN2CCC(c3ccc4c(c3)n(C3CCCC3)c3nc(=O)c5c(Br)cccc5n43)CC2)NC(=O)[C@@H]2C[C@@H](O)CN2C(=O)[C@@H](NC(=O)C2(F)CC2)C(C)(C)C)cc1 [A5-3] | 2.38 | 0.83 | >2 | 0.28 | 1 | 3.3 | – | –
7 | Cc1ncsc1-c1ccc([C@@H](CC[C@@H](C)CCN2CCC(c3ccc4c(c3)n(C3CCCC3)c3nc(=O)c5c(Br)cccc5n43)CC2)NC(=O)[C@@H]2C[C@@H](O)CN2C(=O)[C@@H](NC(=O)C2(F)CC2)C(C)(C)C)cc1 [A5-4] | 3.31 | 1.8 | >2 | 0.14 | 0.9 | – | – | > 1.5
8 | Cc1ncsc1-c1ccc([C@H](COCCN2CCC(c3ccc4c(c3)n(C3CCCC3)c3nc(=O)c5c(Br)cccc5n43)CC2)NC(=O)[C@@H]2C[C@@H](O)CN2C(=O)[C@@H](NC(=O)C2(F)CC2)C(C)(C)C)cc1 [B-1] | 1.97 | 0.61 | >2 | 0.05 | 3 | – | – | –
9 | Cc1ncsc1-c1ccc([C@H](CO[C@H](C)CN2CCC(c3ccc4c(c3)n(C3CCCC3)c3nc(=O)c5c(Br)cccc5n43)CC2)NC(=O)[C@@H]2C[C@@H](O)CN2C(=O)[C@@H](NC(=O)C2(F)CC2)C(C)(C)C)cc1 [B-2] | 1.92 | 0.57 | >2 | 0.05 | 1.8 | – | – | –
10 | Cc1ncsc1-c1ccc([C@H](CO[C@@H](C)CN2CCC(c3ccc4c(c3)n(C3CCCC3)c3nc(=O)c5c(Br)cccc5n43)CC2)NC(=O)[C@@H]2C[C@@H](O)CN2C(=O)[C@@H](NC(=O)C2(F)CC2)C(C)(C)C)cc1 [B-3] | 2.06 | 0.58 | >2 | 0.08 | 2.2 | 23.9 | – | –
11 | Cc1ncsc1-c1ccc([C@H](COC(C)(C)CN2CCC(c3ccc4c(c3)n(C3CCCC3)c3nc(=O)c5c(Br)cccc5n43)CC2)NC(=O)[C@@H]2C[C@@H](O)CN2C(=O)[C@@H](NC(=O)C2(F)CC2)C(C)(C)C)cc1 [B-4] | 2.00 | – | >2 | 0.11 | 1.1 | 31.3 | – | –
